Source: patent US9757375B2, “Compounds that inhibit human DNA ligases and methods of treating cancer” (University of Maryland, Baltimore, priority 2007, dated 2017)
Read-outs that look alike come from different tables or passages of the source.

Assays:
[1] = target: T1, hLigI (Homo sapiens, UniProt P18858); assay: High-throughput fluorescence-based DNA joining (ligation) assay; type: biochemical
T1 construct: made in house
Outline: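 Nicked DNA substrate (10 pmol) was incubated with 0.25 pmol hLigI, with or without 100 μmol/L test compound, in duplicate. Afterwards the DNA was denatured and renatured with a 20-fold excess of unmodified oligonucleotide. Ligation forms an AF488/BHQ1 hairpin, read as reduced fluorescence at 518 nm.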

[2] = target: T2, human DNA ligase III (Homo sapiens, UniProt P49916); assay: as above; type: biochemical
T2 sequence (P49916 1-862 isoform P49916-4): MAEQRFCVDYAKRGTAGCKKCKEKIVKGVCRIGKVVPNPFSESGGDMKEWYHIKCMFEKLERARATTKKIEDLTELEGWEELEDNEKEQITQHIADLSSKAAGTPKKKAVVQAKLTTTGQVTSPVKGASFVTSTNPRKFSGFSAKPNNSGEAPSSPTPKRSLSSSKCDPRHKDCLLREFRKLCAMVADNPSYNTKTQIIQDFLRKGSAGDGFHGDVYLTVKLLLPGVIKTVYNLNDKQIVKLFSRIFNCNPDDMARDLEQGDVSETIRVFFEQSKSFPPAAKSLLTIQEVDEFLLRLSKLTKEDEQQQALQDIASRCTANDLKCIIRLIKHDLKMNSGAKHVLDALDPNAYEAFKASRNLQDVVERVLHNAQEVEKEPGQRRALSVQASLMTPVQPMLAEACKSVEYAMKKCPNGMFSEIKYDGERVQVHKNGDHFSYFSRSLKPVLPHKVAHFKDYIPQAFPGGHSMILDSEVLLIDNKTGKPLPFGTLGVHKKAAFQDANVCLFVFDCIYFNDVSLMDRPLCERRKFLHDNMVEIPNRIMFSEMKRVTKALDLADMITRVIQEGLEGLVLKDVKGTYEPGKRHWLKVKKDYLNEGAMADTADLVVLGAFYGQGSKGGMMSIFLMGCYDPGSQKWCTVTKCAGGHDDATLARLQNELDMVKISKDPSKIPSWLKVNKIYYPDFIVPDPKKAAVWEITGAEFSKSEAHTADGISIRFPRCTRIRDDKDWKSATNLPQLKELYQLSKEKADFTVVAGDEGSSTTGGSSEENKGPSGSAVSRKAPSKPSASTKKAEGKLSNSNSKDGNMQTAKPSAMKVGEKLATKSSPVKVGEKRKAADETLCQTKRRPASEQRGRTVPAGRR
Outline: (§1)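 Ligation joins an AF488-labelled and a BHQ1-labelled oligonucleotide. After denaturation and renaturation with a 20-fold excess of unlabelled competitor strand, the product forms a quenched hairpin, so joining is read as loss of 518 nm fluorescence. Ligase III used a nicked duplex; ligase IV used two duplexes with short complementary single-strand ends.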

[3] = target: human DNA ligase IV (Homo sapiens, UniProt P49917); assay: as above; type: biochemical
Chain of human DNA ligase IV (P49917 whole entry): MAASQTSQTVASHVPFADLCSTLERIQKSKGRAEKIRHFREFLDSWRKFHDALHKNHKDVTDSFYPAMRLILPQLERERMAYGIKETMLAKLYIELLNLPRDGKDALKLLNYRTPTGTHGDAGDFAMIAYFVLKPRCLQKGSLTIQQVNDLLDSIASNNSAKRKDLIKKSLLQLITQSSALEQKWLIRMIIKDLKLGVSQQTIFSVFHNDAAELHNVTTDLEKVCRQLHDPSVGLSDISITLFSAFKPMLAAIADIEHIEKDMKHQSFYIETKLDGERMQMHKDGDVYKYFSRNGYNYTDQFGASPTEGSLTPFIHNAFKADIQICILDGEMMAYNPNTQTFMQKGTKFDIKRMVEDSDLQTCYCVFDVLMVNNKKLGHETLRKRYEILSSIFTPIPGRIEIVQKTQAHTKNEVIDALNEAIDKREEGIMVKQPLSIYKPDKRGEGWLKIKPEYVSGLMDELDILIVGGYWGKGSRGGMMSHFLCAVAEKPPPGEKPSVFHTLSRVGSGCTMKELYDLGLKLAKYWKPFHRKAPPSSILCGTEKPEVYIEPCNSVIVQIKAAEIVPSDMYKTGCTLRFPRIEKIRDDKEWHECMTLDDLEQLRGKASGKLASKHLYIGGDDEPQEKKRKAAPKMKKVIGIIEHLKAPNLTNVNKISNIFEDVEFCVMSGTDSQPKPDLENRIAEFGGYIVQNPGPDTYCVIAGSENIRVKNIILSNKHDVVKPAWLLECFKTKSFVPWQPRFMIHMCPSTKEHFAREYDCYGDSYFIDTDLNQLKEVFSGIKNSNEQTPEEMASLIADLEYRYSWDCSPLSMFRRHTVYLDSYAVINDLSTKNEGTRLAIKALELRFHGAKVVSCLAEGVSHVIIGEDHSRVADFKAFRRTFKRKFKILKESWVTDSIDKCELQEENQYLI
Chain of human DNA ligase IV (Q13426 whole entry partner): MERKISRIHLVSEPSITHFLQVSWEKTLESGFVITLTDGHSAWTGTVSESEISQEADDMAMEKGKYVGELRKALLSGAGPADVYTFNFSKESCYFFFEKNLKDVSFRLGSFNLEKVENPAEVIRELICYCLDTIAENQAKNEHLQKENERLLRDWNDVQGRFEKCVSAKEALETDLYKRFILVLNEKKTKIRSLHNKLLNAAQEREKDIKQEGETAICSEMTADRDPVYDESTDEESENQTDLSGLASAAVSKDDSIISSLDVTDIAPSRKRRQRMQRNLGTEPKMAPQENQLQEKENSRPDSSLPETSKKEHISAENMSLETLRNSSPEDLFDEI
Outline: as §1

[4] = test system: HCT116 and MCF10A cells; assay: Cell proliferation screen, result stated for one or both cell lines; type: cell-based; conditions: Homo sapiens, read-out: IC50 of inhibition of proliferation
[5] = test system: MCF10A cells; assay: Screen for potentiation of DNA damaging agents (MMS, camptothecin, cis-platinum, 3 aminobenzamide, ionizing radiation); type: cell-based, human; conditions: 1 = no sensitization; for MMS: Ratios of IC50 MCF10A: compound alone vs combination with MMS (100 μM)
From the text: The 192 human DNA ligase inhibitors were screened in parallel for effects on proliferation and the ability to potentiate the effects of several DNA damaging agents using two cell human lines, a colon cancer line HCT116 and a normal breast epithelial cell line MCF10A using a Biomek FX Laboratory Automation Workstation as described (23). The DNA damaging agents used, methyl methanesulfonate (MMS), camptothecin, cis-platinum, 3 aminobenzamide and ionizing radiation, are representatives of classes of agents used to treat cancer. Briefly, HCT116 and MCF10A cells were plated in 96 well plates such that the cultures were about 80% confluent after 5 days incubation. Compounds were added to the cultures at either 15 μM or 50 μM 1 day after plating. After incubation for 3 days, cell lysed in a solution containing 1.2% Igepal CA-630 and SYBR green that stains DNA (1:1000, Molecular Probes, Eugene, Oreg.). Subsequently, fluorescence was measured per well. The studies with DNA damaging agents were performed as follows. […] Cultures were incubated for 3 days and then treated as above.

[6] = test system: MCF10A cells; assay: MTT cell growth assay; type: cell-based, human; conditions: Homo sapiens, MCF-10A
Procedure: (§2) The activity of hits from the initial screen was further validated using the MTT assay. Briefly, MCF10A and HCT116 cells were seeded in 96 well plates at 300 and 1200 cells per well, respectively, and allowed to adhere overnight. The following day, serial dilutions of compounds in media were added to the cells in a final volume 200 μl. After incubation for 5 days, MTT reagent (3-(4,5-dimthylthiazol-2-yl)-2,5-diphenyltatrazolium) was added and incubation was continued for 4 h. Formazan crystals generated by reduction of the MTT reagent in mitochondria were solubilized with isopropanol prior to the measurement of absorbance at 560 nm wavelength in a plate reader.
To extend the results of the […] cell culture screening assay, a subset of compounds were tested in larger cultures. Different concentrations of Compounds 67 and 151 were added to asynchronous subconfluent populations of HCT116 and MCF10A cells. Asynchronous subconfluent populations of HCT116 and MCF10A cells were pre-treated with different concentrations of compound 64 prior to the addition of 3 aminobenzamide (2 mM) MMS (100 μM) or cis-platinum (1 μM). After incubation for 5 days, cell growth was measured by the MTT assay (16).

[7] = test system: HCT116 and MCF10A cells; assay: Screen for potentiation of DNA damaging agents, cell line not stated with the result; type: cell-based, human; conditions: 50 μM, MMS 100 μM
From the text: (§3) The 192 human DNA ligase inhibitors were screened in parallel for effects on proliferation and the ability to potentiate the effects of several DNA damaging agents using two cell human lines, a colon cancer line HCT116 and a normal breast epithelial cell line MCF10A using a Biomek FX Laboratory Automation Workstation as described (23). The DNA damaging agents used, methyl methanesulfonate (MMS), camptothecin, cis-platinum, 3 aminobenzamide and ionizing radiation, are representatives of classes of agents used to treat cancer. Briefly, HCT116 and MCF10A cells were plated in 96 well plates such that the cultures were about 80% confluent after 5 days incubation. Compounds were added to the cultures at either 15 μM or 50 μM 1 day after plating. After incubation for 3 days, cell lysed in a solution containing 1.2% Igepal CA-630 and SYBR green that stains DNA (1:1000, Molecular Probes, Eugene, Oreg.). Subsequently, fluorescence was measured per well. The studies with DNA damaging agents were performed as follows. […] For ionizing radiation, cells were pre-incubated with the compounds at 50 μM for 1 hour prior to exposure to 2 gray of ionizing radiation. Cultures were incubated for 3 days and then treated as above.

[8] = test system: HCT116 cells; assay: Screen for potentiation of DNA damaging agents (MMS, camptothecin, cis-platinum, 3 aminobenzamide, ionizing radiation); type: cell-based, human; conditions: compound alone vs combination with MMS (100 μM); 1 = no sensitization
From the text: as §3

[9] = test system: HCT116 cells; assay: MTT cell growth assay; type: cell-based, human; conditions: Homo sapiens, HCT-116
Procedure: as §2
After incubation for 5 days, cell growth was measured by the MTT assay (16).

[10] = target: hLigIV/XRCC4 (Homo sapiens, UniProt P49917); assay: Radioactive gel-based DNA ligation assay; type: biochemical; set-up: concentration or dose not given beside the values
Chain of hLigIV/XRCC4 (P49917 whole entry): as the sequence (P49917 whole entry) above
Chain of hLigIV/XRCC4 (Q13426 whole entry partner): as the sequence (Q13426 whole entry partner) above

[11] = target: T3, T4 DNA ligase (Enterobacteria phage T4, UniProt P00970); assay: High-throughput fluorescence-based DNA joining assay, non-specific inhibitor control; type: biochemical, bacteriophage T4
T3 construct: purchased NEB
T3 sequence (P00970 1-487): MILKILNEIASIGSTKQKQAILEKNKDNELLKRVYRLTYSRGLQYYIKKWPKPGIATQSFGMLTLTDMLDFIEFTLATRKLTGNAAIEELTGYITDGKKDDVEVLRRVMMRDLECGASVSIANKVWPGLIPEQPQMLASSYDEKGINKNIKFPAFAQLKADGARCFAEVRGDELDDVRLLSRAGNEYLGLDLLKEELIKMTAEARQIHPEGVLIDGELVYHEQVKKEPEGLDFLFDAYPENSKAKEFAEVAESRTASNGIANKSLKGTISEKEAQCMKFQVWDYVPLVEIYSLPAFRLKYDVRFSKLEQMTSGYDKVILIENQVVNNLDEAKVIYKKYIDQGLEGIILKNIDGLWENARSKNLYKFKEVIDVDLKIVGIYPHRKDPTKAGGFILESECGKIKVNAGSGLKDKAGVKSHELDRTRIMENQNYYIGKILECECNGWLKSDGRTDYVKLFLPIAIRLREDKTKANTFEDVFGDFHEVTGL
Procedure: Candidate ligase inhibitors identified by CADD were assayed for their ability to inhibit hLigI and T4 DNA ligase using a high-throughput, fluorescence energy transfer-based DNA joining assay (22). Duplicate reactions (30 μL) containing 10 pmol of nicked DNA substrate and either 0.25 pmol of hLigI or 10 units of T4 DNA ligase were incubated in the presence or absence of 100 μmol/L of the putative inhibitor. DNA binding by the candidate DNA ligase inhibitors was measured by displacement of ethidium bromide from DNA as previously described (30).
In addition, to identify compounds that may be non-specific inhibitors of DNA joining, the 192 compounds were also assayed for their ability to inhibit bacteriophage T4 DNA ligase, an enzyme that utilizes the same reaction mechanism as hLigI, has similar adenylation and OB-fold domains but lacks a DBD domain. (6) Although this is also an ATP-dependent DNA ligase, it lacks the domain containing the binding pocket targeted by the in silico screen. Compounds that inhibited T4 DNA ligase were eliminated as non-specific inhibitors that most likely bind to the DNA.

[12] = read-out: % of inhibition @ 100 μM (Helen's data) hLigI
[13] = read-out: % of inhibition @ 100 μM (Helen's data) hLigIII
[14] = 100 μM, read-out: % of inhibition @ 100 μM (Helen's data) hLigIV
[15] = cell growth, compound alone, read-out: IC50 (μM) MCF10A
[16] = sections 'high concentrations (~50 μM)' and 'active in vitro that decreased cell growth', same figures given in μM elsewhere in Table 6, read-out: IC50 MCF10A (head without unit)

T1 sequence (P18858 whole entry): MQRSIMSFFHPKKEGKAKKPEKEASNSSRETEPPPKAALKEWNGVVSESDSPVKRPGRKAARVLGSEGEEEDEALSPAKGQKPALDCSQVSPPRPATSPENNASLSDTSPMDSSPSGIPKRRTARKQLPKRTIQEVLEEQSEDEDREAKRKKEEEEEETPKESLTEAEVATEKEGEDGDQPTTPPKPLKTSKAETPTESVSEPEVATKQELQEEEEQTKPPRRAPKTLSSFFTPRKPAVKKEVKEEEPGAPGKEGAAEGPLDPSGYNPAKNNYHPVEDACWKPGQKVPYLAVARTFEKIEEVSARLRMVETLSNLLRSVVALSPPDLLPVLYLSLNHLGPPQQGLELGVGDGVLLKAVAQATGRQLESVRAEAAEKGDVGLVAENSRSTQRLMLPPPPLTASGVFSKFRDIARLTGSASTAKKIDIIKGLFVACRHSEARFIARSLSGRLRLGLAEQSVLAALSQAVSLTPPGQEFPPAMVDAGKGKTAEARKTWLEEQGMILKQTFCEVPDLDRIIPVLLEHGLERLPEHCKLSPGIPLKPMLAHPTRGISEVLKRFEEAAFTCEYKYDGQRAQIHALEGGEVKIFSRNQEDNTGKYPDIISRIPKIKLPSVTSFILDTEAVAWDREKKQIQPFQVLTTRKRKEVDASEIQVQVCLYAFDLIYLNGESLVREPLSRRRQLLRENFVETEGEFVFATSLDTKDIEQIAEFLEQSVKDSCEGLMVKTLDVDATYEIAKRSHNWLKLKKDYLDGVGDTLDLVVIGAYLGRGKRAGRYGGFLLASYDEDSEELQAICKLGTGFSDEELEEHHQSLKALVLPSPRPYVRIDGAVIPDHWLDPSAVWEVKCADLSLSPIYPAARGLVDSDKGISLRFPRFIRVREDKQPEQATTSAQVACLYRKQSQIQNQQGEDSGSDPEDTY

| SMILES | inhibition at 100 µM [1, 12] [%] | inhibition at 100 µM [2, 13] [%] | inhibition at 100 µM [3, 14] [%] | IC50 [4] [µM] | MMS: Ratios of IC50 MCF10A [5] | IC50 [6, 15] [µM] | IC50 [6, 16] [µM] | further results |
| --- | --- | --- | --- | --- | --- | --- | --- | --- |
| O=C(O)c1ccccc1Nc1ccc([N+](=O)[O-])c2nonc12 [Compound 16] | < 20 | < 20 | < 20 | < 20 | 1 | 6 | – | – |
| C=CCN1C(=O)/C(=N\NC(=O)c2ccccc2O)c2ccccc21 [Compound 78] | – | > 20 | – | < 20 | 1.5 | 7.5 | 7.5 | enhancement of the cytostatic effect of MMS [7]: enhance the cytostatic effect of MMS; MMS: Ratios of IC50 HCT116 [8]: 1; inhibition at 100 µM ([3]; read-out: % of inhibition @ 100 μM (Helen's data) hLigIV): < 20%; IC50 ([9]; cell growth, compound alone, read-out: IC50 (μM) HCT116): 10 µM; IC50 ([9]; sections 'high concentrations (~50 μM)' and 'active in vitro that decreased cell growth', same figures given in μM elsewhere in Table 6, read-out: IC50 HCT116 (head without unit)): 10 µM; IC50 ratios of non- and 3-AB treated cells MCF10A ([5]; compound alone vs combination with 3-AB (2 mM)): 1 |
| CCn1nc(N)c2c(O)nc(O)cc21 [Compound 93] | – | – | – | – | – | – | – | % activity Inhibition hLigI 100 uM ([1]; 100 uM): Ø; inhibition at 100 µM ([1]; read-out: In vitro % inhib hLigI 100): 0%; % activity Inhibition hLigIV gel [10]: Ø; inhibition at 100 µM ([2]; 100 μM, read-out: In vitro % inhib hLigIII 100): 0%; % activity Inhibition hLigIII 100 uM ([2]; 100 uM, Ø not defined (0 in Table 5A)): Ø; inhibition at 100 µM ([3]; 100 μM, read-out: In vitro % inhib hLigIV 100): 37 ± 6%; inhibition at 100 µM ([3]; 100 uM, Ø not defined (0 in Table 5A), read-out: % activity Inhibition hLigIV 100 uM): 37.6 ± 6.1%; inhibition of human DNA ligase IV, in words ([3]; in vitro screen): specific for DNA ligase IV; % activity Inhibition LigT4 100 uM ([11]; 100 uM): Ø; inhibition at 100 µM ([11]; 100 μM, read-out: In vitro % inhib T4 100): 0% |
| O=C(Nc1nc2ccccc2s1)c1ccc(Cl)c([N+](=O)[O-])c1 [Compound 165] | < 20 | < 20 | 37.2 | < 20 | 1 | 3 | 3 | % of inhibition @ 100 μM (Helen's data) hLigIV ([3]; 100 μM): 37% |
| Nn1cnnc1N/N=C/c1cc([N+](=O)[O-])c(Cl)cc1Cl [Compound 195] | 26 | 24 | < 20 | < 20 | 1.2 | 3 | 3 | – |
